Here are results for one compound from US9180118B2, “Thiadiazolidinone derivatives” (University of Rochester, priority 2006, dated 2015).

The test system of one test is normal progenitor cells. Description: Methylcellulose colony assay, normal specimens. The following applies: 20 μM TDZD-8, 18 hours before plating, n=12. Format: cell-based, human. As for the experimental part: Cells were then plated at 50,000 cells/ml in Methocult™ GF H4534 (1% methylcellulose in IMDM, 30% FBS, 1% BSA, 10^−4M 2-mercaptoethanol, 2 mM L-glutamine, 50 ng/ml rh stem cell factor, 10 ng/ml rh GM-CSF, 10 ng/ml rh IL-3-Stem Cell Technologies, Vancouver, B.C.) supplemented with 3 units/ml of erythropoietin and 50 ng/ml G-CSF (R&D Systems, Minneapolis, Minn.). Colonies were scored after 10-14 days of culture.

Another test has as its system All other tumor lines. The experiment in a line: NCI-60 screen, other lines. It is filed as cell-based. To be noted: Homo sapiens; NCI-60, non-hematologic lines; read-out: concentration up to which no growth inhibition was shown. From the text:
In contrast the cell viability for normal specimens was 79.5% (n=13).

As for `Cn1sc(=O)n(Cc2ccccc2)c1=O` [TDZD-8, 4-benzyl-2-methyl-1,2,4-thiadiazolidine-3,5-dione], in the test on normal progenitor cells, the “erythroid colonies, normalized to untreated controls” value is reported as 94.79% and the “myeloid colonies, normalized to untreated controls” value is on record as 84.14%. In addition, the IC50 with All other tumor lines was greater than 100 µM.
